Test results as given in article PMC3327805 (Journal of Molecular Biology, 2012).

Molecular target: PBPA (penicillin-binding protein A) (Mycobacterium tuberculosis, UniProt P9WKD1)
Sequence (P9WKD1 34-491): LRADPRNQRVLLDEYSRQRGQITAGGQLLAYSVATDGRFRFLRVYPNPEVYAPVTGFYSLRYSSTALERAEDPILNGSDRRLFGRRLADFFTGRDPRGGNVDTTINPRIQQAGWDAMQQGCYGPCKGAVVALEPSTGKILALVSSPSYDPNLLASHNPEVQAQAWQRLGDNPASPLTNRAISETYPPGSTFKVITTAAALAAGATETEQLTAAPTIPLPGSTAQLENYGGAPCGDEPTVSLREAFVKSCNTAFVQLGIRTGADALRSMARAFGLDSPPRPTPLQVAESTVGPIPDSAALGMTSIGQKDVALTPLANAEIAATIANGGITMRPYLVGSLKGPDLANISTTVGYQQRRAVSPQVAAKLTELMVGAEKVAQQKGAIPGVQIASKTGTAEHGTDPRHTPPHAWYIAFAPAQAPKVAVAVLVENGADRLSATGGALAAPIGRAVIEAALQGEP

## C[C@@H](O)[C@H]1C(=O)N2C(C(=O)O)=C(SCCN=CN)C[C@H]12 [Imipenem]
  Method / Intrinsic fluorescence: 3,980 ± 180 M^-1 sec^-1
